Data set [1] deals with AU-565 cells. The data set is classed as cell-based, human. The settings on record: 24 h. The protocol: (§1) MDA-MB-468, MDA-MB-231, BT-474, AU-565, HB2, and MCF-10A cells were procured from American Type Culture Collection (ATCC) and validated for lack of mycoplasma contamination (MycoAlert; Lonza, Basel, Switzerland) and identity (short tandem repeat profiling; Source Bioscience, Nottingham, UK). Cells (except MCF-10A) were cultured in Dulbecco’s modified Eagle medium (DMEM) supplemented with 10% (v/v) fetal calf serum (FCS) and 100 units/mL penicillin–streptomycin (Thermo Scientific; Waltham, MA, USA). MCF-10A was cultured in DMEM supplemented with 5% horse serum, 0.1 μg/mL cholera toxin, 0.5 μg/mL hydrocortisone, 0.02 μg/mL epidermal growth factor, and 100 units/mL penicillin–streptomycin (Thermo Scientific, Waltham, MA, USA). Cells were grown at 37 °C in a humidified incubator with 5% CO2. Cells were maintained and experiments were performed under conditions ensuring cell densities that supported exponential growth.
(§2) Cells were seeded in 96-well plates at 1 × 10^4 cells/well in complete growth media and incubated for 18 h. Cells were then treated with peptides (0–250 μM) for up to 24 h. Cells were then incubated with 0.5 mg/mL MTT dissolved in PBS for 3 h. Formazan crystals were dissolved using […] of isopropanol and absorbance was measured at 570 nm on a microplate spectrophotometer (Biotech Instruments, USA). For spheroids assays, MDA-MB-468 or HB2 cells (1000 cells/well) were seeded in 250 μL of DMEM supplemented with 10% FCS and 2.5% Matrigel (Corning, New York, USA) in low-adherent, round-bottom 96-well plates (Corning, New York, USA). The plates were centrifuged at 360g for 10 min and subsequently incubated for 48 h to allow spheroid formation. MDA-MB-468 or HB2 spheroids were then treated with peptides at the IC50 doses determined for MDA-MB-468 cells for 24 h. Cellular viability within spheroids was assessed by staining with Hoechst 33342 (5 μg/mL) for 30 min, followed by propidium iodide (PI) (1.5 μg/mL) for 10 min. Red fluorescence indicated nonviable cells stained with PI, whereas blue fluorescence represented both viable and nonviable cells stained with Hoechst 33342. The survival of spheroids was determined by calculating ratios of blue/red fluorescence using ImageJ software.
(§3) A panel of human breast epithelial cell lines was established, including two lines from a nontransformed origin (MCF-10A; HB2) and four cancer lines (BT-474; AU-565; MDA-MB-231; MDA-MB-468). Cells were treated with different doses of MP1 or the modified peptides. Survival was assessed relative to untreated using MTT assays (Figures and S2) and IC50 doses were determined for each peptide in each cell line.

Data set [2] has as its system BT-474 cells. Type of data set: cell-based, human. The note with it: 24 h. The protocol: as §1, §2, §3
In data set [3] the test system is HB2 cells. The data set is classed as cell-based, human. The settings on record: 24 h. The protocol:
as §1, §2, §3

For data set [4], the system named is MCF-10A cells. The data set is classed as cell-based, human. The settings on record: 24 h. As to the method:
as §1, §2, §3

Data set [5] relates to MDA-MB-231 cells. Type of data set: cell-based, human. The note with it: 24 h. The protocol:
as §1, §2, §3

Data set [6] deals with MDA-MB-468 cells. Type of data set: cell-based, human. The note with it: 24 h. The protocol: as §1, §2, §3
Data set [7] concerns red blood cells. Briefly: Ex vivo hemolysis assay. The settings on record: mouse RBCs 1:50 in PBS, three doses, 1 h, 37 °C, absorbance 540 nm. Type of data set: cell-based. The protocol: Blood was collected from five 10-week-old male C57BL/6 mice via cardiac puncture following cervical dislocation, using pediatric blood collection tubes containing K3 EDTA (Greiner; Slušovice, Czechia). Blood was centrifuged (500g; 5 min; 4 °C) and plasma was removed. Red blood cells (RBCs) were resuspended to their original volume using 150 mM NaCl. RBCs were repeatedly washed and diluted to 1:50 in PBS. For a positive control, 1% (v/v) Triton X-100 was used (100% lysis), while cells incubated in PBS served as a negative control (0% lysis). 200 μL of RBCs in triplicate was treated with peptides and incubated on an orbital shaker (100 rpm; 1 h; 37 °C). Samples were centrifuged (500g; 5 min) and supernatants, containing lysed RBCs, were collected. Hemolysis was quantified by measuring absorbance at 540 nm.
Our next aim was to assess whether our various peptides had potential as anticancer therapeutics using an in vivo model. To our knowledge, MP1 or MP1-derived peptides have not previously been used experimentally in vivo, therefore we first performed an in vitro hemolysis assay to aid selection of peptides that could be suitable for intravenous delivery. Red blood cells were isolated from mouse blood and treated with three different doses of MP1 wildtype or our targeted peptides (EGFR and EGFR-MMP versions of both MP1 and D2K) and hemolysis was measured (Figure A).

The subject of data set [8] is MDA-MB-468 xenografts. The data set is described as follows: MDA-MB-468 xenograft study in NCG mice. Type of data set: in vivo, mouse. The note with it: 500 μg i.v. days 1, 3, 5, monitored 27 days, recovered by the end of the experiment. The protocol: These were performed by HD Biosciences (Shanghai, China). Procedures related to handling, care, and treatment of animals were performed according to guidelines approved by the HD Biosciences Institutional Animal Care and Use Committee (reference number AUC105), under the criteria of the Association for Assessment and Accreditation of Laboratory Animal Care (AAALAC). Protocols and AAALAC accreditation were reviewed by the Animal Welfare and Ethical Review Committee at the University of Leeds and were approved (reference number THAWERC222707; date 28/7/2022). Protocols and data are reported in accordance with the ARRIVE guidelines (https://arriveguidelines.org/arrive-guidelines). Female NCG mice (6–8 weeks old) were purchased from GemPharmatech Ltd. (Nanjing, China). […] Two groups were used: control group (13 animals) and test group (7 animals); group sizes were not determined by power calculation due to lack of data on which this could be based. […] Tumor volumes were monitored using calipers, and body weight was monitored throughout the experiment; no animals were excluded. […]
NCG immune-compromised female mice were implanted subcutaneously with MDA-MB-468 xenografts. […] Tumor size and animal weight were monitored every 2 to 3 days for a total of 27 days, after which animals were sacrificed and tumors were dissected and weighed. […]

Molecules are shown by their SMILES. Residues, ends and D or L forms follow the SMILES beside them.

Consider `CC[C@H](C)[C@H](N)C(=O)N[C@@H](CC(=O)O)C(=O)N[C@@H](Cc1c[nH]c2ccccc12)C(=O)N[C@@H](CCCCN)C(=O)N[C@@H](CCCCN)C(=O)N[C@@H](CC(C)C)C(=O)N[C@@H](CC(C)C)C(=O)N[C@@H](CC(=O)O)C(=O)N[C@@H](C)C(=O)N[C@@H](C)C(=O)N[C@@H](CCCCN)C(=O)N[C@@H](CCC(N)=O)C(=O)N[C@H](C(=O)N[C@@H](CC(C)C)C(=O)NCC(=O)N1CCC[C@H]1C(=O)N[C@@H](CC(C)C)C(=O)NCC(=O)N[C@H](C(=O)N[C@@H](C)C(=O)NCC(=O)N[C@@H](CCC(N)=O)C(=O)N[C@@H](Cc1ccc(O)cc1)C(=O)N[C@@H](Cc1c[nH]cn1)C(=O)N[C@@H](Cc1c[nH]c2ccccc12)C(=O)N[C@@H](Cc1ccc(O)cc1)C(=O)NCC(=O)N[C@@H](Cc1ccc(O)cc1)C(=O)N[C@H](C(=O)N1CCC[C@H]1C(=O)N[C@@H](CCC(=O)O)C(=O)N[C@@H](CC(N)=O)C(=O)N[C@H](C(=O)N[C@H](C(=O)O)[C@@H](C)CC)C(C)C)[C@@H](C)O)[C@@H](C)CC)[C@@H](C)CC` [EGFR-MMP-MP1] (H-IDWKKLLDAAKQILGPLGIAGQYHWYGYTPENVI-OH), for which the IC50 in data set [1] was 105 µM; in data set [2] it was 116 µM; in data set [3], 92.4 µM; in data set [4], 114 µM; in data set [5], 57.9 µM; in data set [6], 56.6 µM. In data set [6], the “selectivity index (IC50 noncancer line / IC50 cancer line)” value worked out at 1.63. Besides, in data set [7], the “hemolysis (in words)” value was “low hemolysis at relevant doses”. Besides, in data set [8], the “animal weights as surrogate for side-effects” value is “slightly reduced”.

A word on the IC50: it is the concentration at which inhibition is half-maximal. Low readings indicate inhibition by little substance, high ones a need for much substance.

(Values after PMC13147323, “EGFR-Targeted and MMP-Activated Membranolytic Peptides Kill Cancer Cells Specifically In Vitro and Reduce Tumor Growth In Vivo” (Molecular Pharmaceutics, 2026).)
